No end group written: not given here.

Test [1] relates to human bone marrow-derived mesenchymal stem cells. Description: Proliferation of human marrow-derived mesenchymal stem cells (WST-1 cell counting). Type of test: cell-based. To be noted: 10 to 100 ng/ml peptide, day-4 or later, P<0.01, n=6, FIG. 1. Here is the method: (§1) An in vitro experiment was conducted to analyze how the SVVYGLR peptide (SEQ ID NO: 1) affected a proliferating ability of mesenchymal cells present in intercellular substances of bone marrow and dental pulp.
(§2) Purchased human bone marrow-derived mesenchymal stem cells (Cambrex BioScience Inc.) were used as the mesenchymal cells of the intercellular substance of bone marrow. Further, “dental pulp cells”, the mesenchymal cells that constitute a main component of dental pulp tissue, were isolated from a lower incisor of a Sprague-Dawley rat (8-week old male) and cultured based on the method of Nakamura H et al. (J Dent Res. 84: 515-520: 2005), and used for the experiment.
(§3) These cells were seeded into a 96-well cell culture plate at a rate of 5,000 cells/well, and the number of cells under the presence of the SVVYGLR peptide (SEQ ID NO: 1) (0 to 100 ng/ml) was measured by using WST-1 Cell Counting Kit (DOJINDO LABORATORIES). A culture medium was replaced every other day.
On the technique in general: Formazan colour is commonly taken as a measure of viable cells.

For test [2], the system named is human periodontal ligament cells. Description: Adhesion of human periodontal ligament cells to peptide-coated plate (crystal violet). In kind it is cell-based. To be noted: plate coated with 0.01 to 100 μg/ml peptide, 30 minutes incubation, P<0.01, n=8, FIG. 11. Here is the method: (§4) An effect that is exerted on adhesive capacity of the mesenchymal cells by the SVVYGLR peptide (SEQ ID NO: 1) was analyzed. The mesenchymal cells used in this example were: human marrow-derived mesenchymal stem cells (human mesenchymal stem cell for study: provided by RIKEN CELL BANK); human gingival fibroblasts (isolated from human gingival and cultured according to a publicly known method); and human periodontal ligament cells (normal human periodontal ligament fibroblast cells: purchased from Sanko Junyaku Co., Ltd).
(§5) A coating plate was produced through the steps of: adding the synthesized SVVYGLR peptide (SEQ ID NO: 1) (0 to 100 μg/ml) to a 96-well microplate for floating cells (ASAHI TECHNO GLASS CORPORATION) for culturing these cells, allowing the microplate to stand for 2 hours at 37 °C, and rinsing the microplate twice in phosphate buffer (PBS: Sigma Pharmaceuticals Ltd). The SVVYGLR peptide (SEQ ID NO: 1) was synthesized with the method described in example 1. […]
(§6) The cells attached to the coating plate were stained with 0.1% crystal violet (Wako Chemicals USA. Inc) […], and then rinsed three times with PBS. Twenty-percent TritonX (Sigma Pharmaceuticals Ltd) was added to each well, and 48 hours later, optical density of each well at a wavelength of […] was measured (reference wavelength […]) by using an optical density spectrometer (BioRad model 680).

The test system of test [3] is dental pulp cells. Description: Proliferation of dental pulp cells (WST-1 cell counting). In kind it is cell-based, Sprague-Dawley rat. To be noted: 10 to 100 ng/ml peptide, day-10 or later, P<0.01, n=6, FIG. 2. On the procedure:
as §1, §2, §3

The test system of test [4] is mesenchymal cells isolated from thigh bone marrow. Briefly: Pellet culture of bone marrow mesenchymal cells (three-dimensional proliferation). Type of test: cell-based, Sprague-Dawley rat. The note with it: 100 ng/ml peptide. On the procedure: A pellet culture experiment was conducted to analyze how the SVVYGLR peptide (SEQ ID NO: 1) affected the mesenchymal cells when the mesenchymal cells clump together three-dimensionally over a long time.
The mesenchymal cells were isolated from thigh bone marrow of a Sprague-Dawley rat (8-week old male), and cultured in a pellet culture with initial count of 50,000 cells based on the method of Tsutsumi S et al. (Biochem Biophys Res Commun. 288:413-419:2001). The incubation was carried out with a culture medium prepared in such a manner that dexamethasone (100 nM, Sigma-Aldrich), ascorbic acid (50 μg/ml, Sigma-Aldrich), ITS+ premix (100 times diluted, BD Biosciences), and recombinant human transforming growth factor-β1 (10 ng/ml, PeproTech EC) were added to α-MEM (high glucose: Nacalai Tesque, Inc). The SVVYGLR peptide (SEQ ID NO: 1) (100 ng/ml) was added to the culture medium and the pellet was incubated for 26 days. The culture medium was replaced every other day.
The pellet was collected and fixed in phosphate buffered 10% formalin solution for 3 hours at 4° C. After the pellet was washed with PBS (pH7.4), the pellet was soaked in the PBS of a culture plate and photographed under a phase contrast microscope. Planar dimensions of the pellet on a photographed image were measured by using an image analysis software ImageJ ver.1.33u (National Institute of health, USA).

Test [5] deals with human marrow-derived mesenchymal stem cells. Description: Adhesion of human marrow-derived mesenchymal stem cells to peptide-coated plate (crystal violet). To be noted: plate coated with 0.01 to 100 μg/ml peptide, 30 minutes incubation, P<0.01, n=8, FIG. 9. In kind it is cell-based. Here is the method:
as §4, §5, §6

In test [6] the test system is human gingival fibroblasts. Briefly: Adhesion of human gingival fibroblasts to peptide-coated plate (crystal violet). The note with it: plate coated with 0.01 to 100 μg/ml peptide, 30 minutes incubation, P<0.01, n=8, FIG. 10. Type of test: cell-based. On the procedure: as §4, §5, §6

As to “SVVYGLR [SVVYGLR peptide, osteopontin-derived peptide of seven amino acids, synthesized by Fmoc solid-phase method]”, the “number of human marrow-derived mesenchymal stem cells compared to control group” value in test [1] was “significantly increased”. The “number of human periodontal ligament cells adhered to coated plate compared to control” value in test [2] is listed as “significantly increased density-dependently”. Besides, the “number of dental pulp cells compared to control group” value in test [3] is listed as “significantly increased”. For the same substance, the “toluidine blue staining of pellet segments (extracellular matrix, acid mucopolysaccharide)” value in test [4] (26 days pellet culture) is “no toluidine blue staining was observed”. In test [4] (incubated 26 days, three pellets per group, FIG. 4), the “pellet size (planar dimensions) relative to control group” value came out at 1.5 times. In test [5], the “number of human marrow-derived mesenchymal stem cells adhered to coated plate compared to control” value was “significantly increased density-dependently”. For the same substance, in test [6], the “number of human gingival fibroblasts adhered to coated plate compared to control” value is “significantly increased density-dependently”.

The values above are taken from patent publication US8222216B2, “Mesenchymal cell proliferation promoter and skeletal system biomaterial” (Osaka University, priority 2006, dated 2012).
